Patent US7655237B2, “Use of soluble CD14 for treatment of type 2 diabetes mellitus” (Bridge Bioresearch Limited, priority 2003, dated 2010)
Where two headings read alike, the source gives them in different places.

Assays:
LPS = settings: biotinylated LPS binding to sCD14-coated wells, cited from earlier work
C57BL/6J mice (HF mice) = assay: treatment of insulin-resistant obese C57BL/6J mice (HF mice), glucose tolerance test; type: in vivo; settings: HF diet obese mice
Source text: The objective of this experiment was to study the effect of systemic administration of human recombinant sCD14 (rhCD14) with respect to relevant insulin resistance parameters in experimental mice (C57BL/6J mice (HF mice).
Experiential animals: Male mice strains C57BL/6J (HF mice) C(he Jackson lab.). These animals had obesity.
Treatment of the mice with rhCD14: Male C57BL/6J mice were fed a HF diet (Harlan Teklad No. 88137: 21% by wt and 42% kcal from fat) for 26-28 weeks. The last 12 days, mice received a dose of 1 μg/g bw per day of hCD14 in two injections (0.5 μg/g each one) every 12 hours. The control group was treated with vehicle (saline serum) alone. Each group contained 9 mice.
Assay for Glucose Tolerance: As in Example 1.

C57BL/6J ob/ob mice = assay: treatment of insulin-resistant diabetic C57BL/6J ob/ob mice, intraperitoneal glucose tolerance test; type: in vivo
Source text: The objective of this experiment was to study the effect of systemic administration of human recombinant sCD14 (rhCD14) with respect to relevant insulin resistance parameters in experimental mice (mice C57BL/6J ob/ob).
Experimental animals: Mice strains C57BL/6J ob/ob (The Jackson lab.). Males of 10 weeks old. These animals had obesity with hyperphagia, hyperinsulinemia (the presence of excess insulin in the blood), insulin resistance and moderate hyperglycemia (an excess of sugar in the blood).
Treatment of the mice with rhCD14: rhCD14 was continuously infused for 12 days by use of Alzet® pumps (pump 1002, 100 μl) implanted subcutaneously on the back of the animals. 20 mice were used. 10 with rhCD14 and 10 with saline serum (control). The dose was 1 μg/g weight of mice/day and it was administrated subcutaneously for 12 days.
Assay for glucose tolerance: Finalized the 12 days and after 16 hours of fasting, an intraperitoneal glucose tolerance test (GTT) was made. 2 g/kg of glucose (Glucosmon, 50%) were injected intraperitoneally. Blood samples were taken from the tail of the mice (20 μl) at 0, 15, 30, 60, 120 and 180 minutes after the glucose administration. The blood glucose levels were measured using a conventional glucometer (Menarini) and the insulin levels were meed by ELISA (Mercodia Ultrasensitive Mouse Insulin ELISA).

Substance	inhibition of LPS binding (LPS; concentration 1.7 μM)	inhibition of LPS binding (LPS; concentration 7 μM)	concentrations of serum insulin (C57BL/6J mice (HF mice); 1 μg/g bw per day for 12 days)	basal levels of serum glucose compared to the control group (C57BL/6J mice (HF mice); 1 μg/g bw per day in two injections for 12 days)	body weight, treated vs controls (C57BL/6J mice (HF mice); 12 days treatment)	insulin curves in GTT, treated vs control (two-way ANOVA) (C57BL/6J mice (HF mice); P<0.0001)	glucose curves in GTT, treated vs control (two-way ANOVA) (C57BL/6J mice (HF mice); P<0.002)	basal levels of serum glucose compared to the control group (C57BL/6J ob/ob mice; 1 μg/g/day s.c. for 12 days)	concentrations of serum insulin (C57BL/6J ob/ob mice; 1 μg/g/day s.c. for 12 days)	fasting blood glucose (C57BL/6J ob/ob mice; 1 μg/g/day s.c. infusion for 12 days, 16 hours fasting, mean±SEM, control 242±30, P=0.02)	body weight, treated vs controls (C57BL/6J ob/ob mice; 12 days treatment)	glucose curves in GTT, treated vs control (two-way ANOVA) (C57BL/6J ob/ob mice; i.p. GTT 2 g/kg glucose, 0-180 min, P<0.02)	insulin curves in GTT, treated vs control (two-way ANOVA) (C57BL/6J ob/ob mice; i.p. GTT, P<0.0001)
AELQQWLKPGLKVLSIAQAHSLNFSC (mammalian) [peptide]	72%	84%	–	–	–	–	–	–	–	–	–	–	–
rhCD14: human recombinant soluble CD14 glycoprotein, binds bacterial lipopolysaccharide (LPS)	84%	–	increased	decreased	did not produce significant changes	significant difference	significant difference	decreased	also decreased	153 ± 14 mg/dL	did not produce significant changes	significant difference	significant difference
